Assay results reported in ChEMBL document CHEMBL3885861, “Open TG-GATES”.

Species: Rattus norvegicus
Assay: Open TG-GATES - Regimen: Daily Repeat
Type: toxicity, organism-based, Sprague-Dawley
Parameters: regimen Daily Repeat, gender Male, age 6 weeks
Conditions: in vivo, po, 100 mg/kg, route gavage, dose level Low; for APTT / Bas / Eos / Fbg / Hb / Ht / Lym / MCH / MCHC / MCV / Mono / Neu / PT / Plat / RBC / Ret / WBC: tissue Blood; for KIDNEY_L / KIDNEY_R / KIDNEY_TOTAL: tissue Kidney; for LIVER: tissue Liver; for A/G / ALP / ALT / AST / BUN / CRE / Ca / Cl / DBIL / GLC / IP / K / LDH / Na / PL / RALB / TBIL / TC / TG / TP / gamma-GTP: tissue Plasma

For `CC(=O)[C@@]1(O)CC[C@H]2[C@@H]3C=C(Cl)C4=CC(=O)CC[C@]4(C)[C@H]3CC[C@@]21C` [CHLORMADINONE], the TERMINAL_BW (72 h, time 3 day) was 229.4 g, the APTT (72 h, time 3 day) was 26.3 s and the Bas (72 h, time 3 day) was 0%. It also gave an Eos (72 h, time 3 day) of 1%, a Fbg (72 h, time 3 day) of 311.6 mg/dL and a Hb (72 h, time 3 day) of 14.1 g/dL. For the same molecule, the Ht (72 h, time 3 day) was 42.6%, the Lym (72 h, time 3 day) was 80.4% and the MCH (72 h, time 3 day) was 20.1 pg. For the same molecule, the MCHC (72 h, time 3 day) was 33.1%, the MCV (72 h, time 3 day) was 60.6 fL and the Mono (72 h, time 3 day) was 2.4%. It also gave a Neu (72 h, time 3 day) of 15.6%, a PT (72 h, time 3 day) of 15.3 s and a Plat (72 h, time 3 day) of 122.1 x10_4/uL. It also gave an RBC (72 h, time 3 day) of 702.6 x10_4/ul, a Ret (72 h, time 3 day) of 5.8% and a WBC (72 h, time 3 day) of 113 x10_2/uL. It also gave a KIDNEY_L (72 h, time 3 day) of 1 g, a KIDNEY_R (72 h, time 3 day) of 1 g and a KIDNEY_TOTAL (72 h, time 3 day) of 2 g. The LIVER (72 h, time 3 day) was 10.5 g, the A/G (72 h, time 3 day) was 1.3 and the ALP (72 h, time 3 day) was 1589 IU/L. It also gave an ALT (72 h, time 3 day) of 54 IU/L, an AST (72 h, time 3 day) of 72.8 IU/L and a BUN (72 h, time 3 day) of 15.8 mg/dL. For the same molecule, the CRE (72 h, time 3 day) was 0.2 mg/dL, the Ca (72 h, time 3 day) was 10.7 mg/dL and the Cl (72 h, time 3 day) was 106.2 meq/L. For the same molecule, the DBIL (72 h, time 3 day) was 0 mg/dL, the GLC (72 h, time 3 day) was 192.4 mg/dL and the IP (72 h, time 3 day) was 7.4 mg/dL. For the same molecule, the K (72 h, time 3 day) was 4.5 meq/L, the LDH (72 h, time 3 day) was 171.4 IU/L and the Na (72 h, time 3 day) was 141.6 meq/L. For the same molecule, the PL (72 h, time 3 day) was 160.2 mg/dL, the RALB (72 h, time 3 day) was 3.1 g/dL and the TBIL (72 h, time 3 day) was 0.006 mg/dL. It also gave a TC (72 h, time 3 day) of 74 mg/dL, a TG (72 h, time 3 day) of 129.4 mg/dL and a TP (72 h, time 3 day) of 5.5 g/dL. For the same molecule, the gamma-GTP (72 h, time 3 day) was 1.6 IU/L, the TERMINAL_BW ([…], time 7 day) was 252.1 g and the TERMINAL_BW ([…], time 14 day) was 293.5 g. For the same molecule, the TERMINAL_BW ([…], time 28 day) was 362.8 g, the APTT ([…], time 7 day) was 27.7 s and the Bas ([…], time 7 day) was 0%. It also gave an Eos ([…], time 7 day) of 1%, a Fbg ([…], time 7 day) of 343.2 mg/dL and a Hb ([…], time 7 day) of 14.5 g/dL. It also gave a Ht ([…], time 7 day) of 43.2%, a Lym ([…], time 7 day) of 84% and an MCH ([…], time 7 day) of 20.2 pg. The MCHC ([…], time 7 day) was 33.6%, the MCV ([…], time 7 day) was 60.1 fL and the Mono ([…], time 7 day) was 2.2%. For the same molecule, the Neu ([…], time 7 day) was 12%, the PT ([…], time 7 day) was 15.2 s and the Plat ([…], time 7 day) was 133.1 x10_4/uL. For the same molecule, the RBC ([…], time 7 day) was 720.2 x10_4/ul, the Ret ([…], time 7 day) was 4.2% and the WBC ([…], time 7 day) was 118.1 x10_2/uL. The APTT ([…], time 14 day) was 27.9 s, the Bas ([…], time 14 day) was 0% and the Eos ([…], time 14 day) was 0.8%. It also gave a Fbg ([…], time 14 day) of 327.6 mg/dL, a Hb ([…], time 14 day) of 14.8 g/dL and a Ht ([…], time 14 day) of 43.9%. The Lym ([…], time 14 day) was 82%, the MCH ([…], time 14 day) was 19.5 pg and the MCHC ([…], time 14 day) was 33.8%. For the same molecule, the MCV ([…], time 14 day) was 57.6 fL, the Mono ([…], time 14 day) was 2% and the Neu ([…], time 14 day) was 14.6%. The PT ([…], time 14 day) was 15.2 s, the Plat ([…], time 14 day) was 103.8 x10_4/uL and the RBC ([…], time 14 day) was 762.8 x10_4/ul. The Ret ([…], time 14 day) was 3.6%, the WBC ([…], time 14 day) was 100.2 x10_2/uL and the APTT ([…], time 28 day) was 27.1 s. For the same molecule, the Bas ([…], time 28 day) was 0%, the Eos ([…], time 28 day) was 1% and the Fbg ([…], time 28 day) was 303.4 mg/dL. The Hb ([…], time 28 day) was 15.5 g/dL, the Ht ([…], time 28 day) was 45.1% and the Lym ([…], time 28 day) was 84.8%. For the same molecule, the MCH ([…], time 28 day) was 19.2 pg, the MCHC ([…], time 28 day) was 34.4% and the MCV ([…], time 28 day) was 55.7 fL. It also gave a Mono ([…], time 28 day) of 1.6%, a Neu ([…], time 28 day) of 11.4% and a PT ([…], time 28 day) of 14.9 s. For the same molecule, the Plat ([…], time 28 day) was 95 x10_4/uL, the RBC ([…], time 28 day) was 809 x10_4/ul and the Ret ([…], time 28 day) was 2.2%. It also gave a WBC ([…], time 28 day) of 106.1 x10_2/uL, a KIDNEY_L ([…], time 7 day) of 1.1 g and a KIDNEY_R ([…], time 7 day) of 1.1 g. The KIDNEY_TOTAL ([…], time 7 day) was 2.2 g, the KIDNEY_L ([…], time 14 day) was 1.1 g and the KIDNEY_R ([…], time 14 day) was 1.1 g. It also gave a KIDNEY_TOTAL ([…], time 14 day) of 2.3 g, a KIDNEY_L ([…], time 28 day) of 1.3 g and a KIDNEY_R ([…], time 28 day) of 1.3 g. It also gave a KIDNEY_TOTAL ([…], time 28 day) of 2.5 g, an LIVER ([…], time 7 day) of 11.1 g and an LIVER ([…], time 14 day) of 12 g. It also gave an LIVER ([…], time 28 day) of 14.2 g, an A/G ([…], time 7 day) of 1.2 and an ALP ([…], time 7 day) of 1694.8 IU/L. The ALT ([…], time 7 day) was 46.4 IU/L, the AST ([…], time 7 day) was 74.6 IU/L and the BUN ([…], time 7 day) was 16.2 mg/dL. The CRE ([…], time 7 day) was 0.2 mg/dL, the Ca ([…], time 7 day) was 10.7 mg/dL and the Cl ([…], time 7 day) was 106.8 meq/L. For the same molecule, the DBIL ([…], time 7 day) was 0 mg/dL, the GLC ([…], time 7 day) was 185.4 mg/dL and the IP ([…], time 7 day) was 7.2 mg/dL. The K ([…], time 7 day) was 4.2 meq/L, the LDH ([…], time 7 day) was 148.4 IU/L and the Na ([…], time 7 day) was 140.6 meq/L. The PL ([…], time 7 day) was 155.2 mg/dL, the RALB ([…], time 7 day) was 3.1 g/dL and the TBIL ([…], time 7 day) was 0.002 mg/dL. For the same molecule, the TC ([…], time 7 day) was 67.4 mg/dL, the TG ([…], time 7 day) was 200.6 mg/dL and the TP ([…], time 7 day) was 5.7 g/dL. For the same molecule, the gamma-GTP ([…], time 7 day) was 2 IU/L, the A/G ([…], time 14 day) was 1.2 and the ALP ([…], time 14 day) was 1379.4 IU/L. For the same molecule, the ALT ([…], time 14 day) was 44.8 IU/L, the AST ([…], time 14 day) was 72.8 IU/L and the BUN ([…], time 14 day) was 17.2 mg/dL. For the same molecule, the CRE ([…], time 14 day) was 0.2 mg/dL, the Ca ([…], time 14 day) was 10.3 mg/dL and the Cl ([…], time 14 day) was 107.8 meq/L. The DBIL ([…], time 14 day) was 0 mg/dL, the GLC ([…], time 14 day) was 183.8 mg/dL and the IP ([…], time 14 day) was 6.5 mg/dL. It also gave a K ([…], time 14 day) of 4.2 meq/L, an LDH ([…], time 14 day) of 144.4 IU/L and a Na ([…], time 14 day) of 142.2 meq/L. The PL ([…], time 14 day) was 142.6 mg/dL, the RALB ([…], time 14 day) was 3.1 g/dL and the TBIL ([…], time 14 day) was 0.006 mg/dL. It also gave a TC ([…], time 14 day) of 69.2 mg/dL, a TG ([…], time 14 day) of 142.2 mg/dL and a TP ([…], time 14 day) of 5.7 g/dL. It also gave a gamma-GTP ([…], time 14 day) of 2 IU/L, an A/G ([…], time 28 day) of 1.1 and an ALP ([…], time 28 day) of 1170.6 IU/L. For the same molecule, the ALT ([…], time 28 day) was 46.8 IU/L, the AST ([…], time 28 day) was 66.6 IU/L and the BUN ([…], time 28 day) was 18.8 mg/dL. The CRE ([…], time 28 day) was 0.2 mg/dL, the Ca ([…], time 28 day) was 10.5 mg/dL and the Cl ([…], time 28 day) was 105.8 meq/L. For the same molecule, the DBIL ([…], time 28 day) was 0 mg/dL, the GLC ([…], time 28 day) was 192.8 mg/dL and the IP ([…], time 28 day) was 6.5 mg/dL. The K ([…], time 28 day) was 4.2 meq/L, the LDH ([…], time 28 day) was 142 IU/L and the Na ([…], time 28 day) was 142 meq/L. It also gave a PL ([…], time 28 day) of 155.4 mg/dL, an RALB ([…], time 28 day) of 3.1 g/dL and a TBIL ([…], time 28 day) of 0.006 mg/dL. It also gave a TC ([…], time 28 day) of 73.2 mg/dL, a TG ([…], time 28 day) of 178 mg/dL and a TP ([…], time 28 day) of 6 g/dL. It also gave a gamma-GTP ([…], time 28 day) of 2.2 IU/L.
